These results are taken from patent US20050079604A1, “Method for improving functionality of tissue constructs” (priority 2001, published 2005).

For assay [1], the system named is reconstructed human vascular media (RHVM). The experiment in a line: Contraction of RHVM rings in response to cumulative doses of histamine (myograph, isometric tension). The settings on record: 21 days of maturation, FIG. 9. It counts as cell-based. The protocol:
(§1) Reconstructed human vascular media (RHVM) were prepared for the control tissue construct (not aligned) as described in Example I. The RHVM used for this example were treated as follow: RHVM cultured in medium described above represent the control condition (non-treated RHVM) and RHVM supplemented with cell proliferation inhibitors, heparin or olomoucine (treated RHVM).
To assess the contractile function of RHVM which were treated or not (control condition), RHVM rings of 5-7 mm in length were removed from the tubular support used for culture after 21 days of maturation. Rings were mounted in a myograph and challenged in the presence of cumulative doses of histamine, a vasoactive agent. Isometric tension generated by RHVM contraction was directly recorded via a force transducer (Kilster-Morse, DSG BE4).

The test system of assay [2] is smooth muscle cells present in reconstructed human vascular media. The experiment in a line: Immunolabeled differentiation markers of smooth muscle cells in RHVM. The format is cell-based. The settings on record: FIG. 10. How it is done: as §1

heparin: the “contraction of RHVM cultured with the cell proliferation inhibitor vs control RHVM” value in assay [1] (higher doses of histamine, 10^−5 and 10^−4 M) was “significantly greater contraction”. Further, in assay [1] (low dose of histamine (10^−6 M)), the “contraction of RHVM cultured with the cell proliferation inhibitor vs non-treated RHVM” value is reported as “no significant difference of contraction”. Moreover, the “expression of differentiation markers in cells cultured with the inhibitor vs without” value in assay [2] is “increased”.
